# Results reported in ChEMBL document CHEMBL4507280 (2021).
# Tests used:
# [1] = biological target: Aurora kinase A (Homo sapiens) (UniProt O14965); conditions: Compound concentration 1000.0 nM
# [2] = biological target: Calcium/calmodulin-dependent protein kinase type 1 (Homo sapiens) (UniProt Q14012); conditions: Compound concentration 1000.0 nM
# [3] = biological target: Calcium/calmodulin-dependent protein kinase kinase 2 (Homo sapiens) (UniProt Q96RR4); conditions: Compound concentration 1000.0 nM
# [4] = biological target: Cyclin-dependent kinase 9 (Homo sapiens) (UniProt P50750); conditions: Compound concentration 1000.0 nM
# [5] = biological target: Cyclin-dependent kinase-like 5 (Homo sapiens) (UniProt O76039); conditions: Compound concentration 1000.0 nM
# Sequence of Cyclin-dependent kinase-like 5 (Homo sapiens) (O76039 whole entry): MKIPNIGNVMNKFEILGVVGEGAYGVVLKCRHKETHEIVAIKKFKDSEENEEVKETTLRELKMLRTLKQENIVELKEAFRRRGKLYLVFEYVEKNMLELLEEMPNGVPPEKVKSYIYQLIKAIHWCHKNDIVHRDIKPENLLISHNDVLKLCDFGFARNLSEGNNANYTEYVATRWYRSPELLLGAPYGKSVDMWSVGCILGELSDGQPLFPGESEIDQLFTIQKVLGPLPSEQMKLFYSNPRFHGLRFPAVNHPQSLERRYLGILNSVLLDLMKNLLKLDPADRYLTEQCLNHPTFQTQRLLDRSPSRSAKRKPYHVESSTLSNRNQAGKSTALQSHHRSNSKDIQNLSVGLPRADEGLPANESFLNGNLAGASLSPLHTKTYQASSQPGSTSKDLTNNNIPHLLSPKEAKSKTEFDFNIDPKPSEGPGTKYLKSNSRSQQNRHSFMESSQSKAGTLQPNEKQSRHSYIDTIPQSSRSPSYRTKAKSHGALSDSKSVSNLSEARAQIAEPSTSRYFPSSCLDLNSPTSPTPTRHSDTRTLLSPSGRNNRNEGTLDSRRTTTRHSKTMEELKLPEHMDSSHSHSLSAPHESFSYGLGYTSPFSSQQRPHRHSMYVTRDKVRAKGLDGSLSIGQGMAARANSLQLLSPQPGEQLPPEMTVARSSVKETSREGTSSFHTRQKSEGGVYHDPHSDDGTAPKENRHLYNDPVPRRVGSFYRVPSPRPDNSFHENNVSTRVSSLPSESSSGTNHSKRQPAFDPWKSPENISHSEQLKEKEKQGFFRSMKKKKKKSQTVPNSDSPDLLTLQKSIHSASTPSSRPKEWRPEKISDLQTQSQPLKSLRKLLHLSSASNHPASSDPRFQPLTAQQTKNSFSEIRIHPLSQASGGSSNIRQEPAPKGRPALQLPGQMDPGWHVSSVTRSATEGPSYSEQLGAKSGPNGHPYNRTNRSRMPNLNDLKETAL
# [6] = biological target: Serine/threonine-protein kinase Chk2 (Homo sapiens) (UniProt O96017); conditions: Compound concentration 1000.0 nM
# [7] = biological target: Casein kinase II subunit alpha' (Homo sapiens) (UniProt P19784); conditions: Compound concentration 1000.0 nM
# [8] = biological target: Myotonin-protein kinase (Homo sapiens) (UniProt Q09013); conditions: Compound concentration 1000.0 nM
# [9] = tested on: Epidermal growth factor receptor (Homo sapiens), P00533 [L861Q]; conditions: Compound concentration 1000.0 nM
# [10] = biological target: Ephrin type-B receptor 1 (Homo sapiens) (UniProt P54762); conditions: Compound concentration 1000.0 nM
# Sequence of Ephrin type-B receptor 1 (Homo sapiens) (P54762 whole entry): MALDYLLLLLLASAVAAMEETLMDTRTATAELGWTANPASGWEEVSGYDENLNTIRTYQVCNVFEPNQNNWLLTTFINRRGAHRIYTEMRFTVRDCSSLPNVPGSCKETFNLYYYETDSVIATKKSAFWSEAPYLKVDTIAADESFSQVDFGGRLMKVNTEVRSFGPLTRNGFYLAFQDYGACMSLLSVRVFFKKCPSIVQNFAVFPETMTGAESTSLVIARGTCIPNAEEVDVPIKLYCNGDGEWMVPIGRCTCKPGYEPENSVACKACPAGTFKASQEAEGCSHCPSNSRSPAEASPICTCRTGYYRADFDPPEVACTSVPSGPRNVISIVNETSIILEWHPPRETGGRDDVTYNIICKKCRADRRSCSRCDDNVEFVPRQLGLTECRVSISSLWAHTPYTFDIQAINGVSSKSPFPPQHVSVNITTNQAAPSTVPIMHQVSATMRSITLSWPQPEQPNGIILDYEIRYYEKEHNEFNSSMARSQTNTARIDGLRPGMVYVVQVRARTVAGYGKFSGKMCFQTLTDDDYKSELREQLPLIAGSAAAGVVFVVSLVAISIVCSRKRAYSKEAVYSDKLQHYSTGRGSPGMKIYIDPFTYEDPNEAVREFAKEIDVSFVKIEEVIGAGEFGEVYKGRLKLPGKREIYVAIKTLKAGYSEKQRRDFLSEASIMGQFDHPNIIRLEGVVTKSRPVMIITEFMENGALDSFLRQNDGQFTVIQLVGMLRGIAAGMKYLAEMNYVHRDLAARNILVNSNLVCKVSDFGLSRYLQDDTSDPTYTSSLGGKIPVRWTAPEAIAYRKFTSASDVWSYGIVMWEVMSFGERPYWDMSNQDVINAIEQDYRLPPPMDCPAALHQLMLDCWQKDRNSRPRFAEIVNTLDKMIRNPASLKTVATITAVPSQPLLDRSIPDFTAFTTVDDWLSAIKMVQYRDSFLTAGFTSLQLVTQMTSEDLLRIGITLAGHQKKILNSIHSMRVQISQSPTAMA
# [11] = biological target: Receptor-type tyrosine-protein kinase FLT3 (Homo sapiens) (UniProt P36888); conditions: Compound concentration 1000.0 nM
# [12] = biological target: Rhodopsin kinase GRK1 (Homo sapiens) (UniProt Q15835); conditions: Compound concentration 1000.0 nM
# [13] = biological target: Serine/threonine-protein kinase haspin (Homo sapiens) (UniProt Q8TF76); conditions: Compound concentration 1000.0 nM
# [14] = biological target: Serine/threonine-protein kinase LATS2 (Homo sapiens) (UniProt Q9NRM7); conditions: Compound concentration 1000.0 nM
# [15] = biological target: Leucine-rich repeat serine/threonine-protein kinase 2 (Homo sapiens) (UniProt Q5S007); conditions: Compound concentration 1000.0 nM
# [16] = biological target: Serine/threonine-protein kinase MARK2 (Homo sapiens) (UniProt Q7KZI7); conditions: Compound concentration 1000.0 nM
# [17] = biological target: Dual specificity mitogen-activated protein kinase kinase 4 (Homo sapiens) (UniProt P45985); conditions: Compound concentration 1000.0 nM
# [18] = biological target: Myosin light chain kinase, smooth muscle (Homo sapiens) (UniProt Q15746); conditions: Compound concentration 1000.0 nM
# [19] = biological target: Myosin light chain kinase family member 4 (Homo sapiens) (UniProt Q86YV6); conditions: Compound concentration 1000.0 nM
# [20] = biological target: Serine/threonine-protein kinase Nek10 (Homo sapiens) (UniProt Q6ZWH5); conditions: Compound concentration 1000.0 nM
# [21] = biological target: Serine/threonine-protein kinase Nek11 (Homo sapiens) (UniProt Q8NG66); conditions: Compound concentration 1000.0 nM
# [22] = biological target: Mitogen-activated protein kinase 11 (Homo sapiens) (UniProt Q15759); conditions: Compound concentration 1000.0 nM
# [23] = biological target: Phosphorylase b kinase gamma catalytic chain, skeletal muscle/heart isoform (Homo sapiens) (UniProt Q16816); conditions: Compound concentration 1000.0 nM
# Sequence of Phosphorylase b kinase gamma catalytic chain, skeletal muscle/heart isoform (Homo sapiens) (Q16816 whole entry, looked up, canonical isoform): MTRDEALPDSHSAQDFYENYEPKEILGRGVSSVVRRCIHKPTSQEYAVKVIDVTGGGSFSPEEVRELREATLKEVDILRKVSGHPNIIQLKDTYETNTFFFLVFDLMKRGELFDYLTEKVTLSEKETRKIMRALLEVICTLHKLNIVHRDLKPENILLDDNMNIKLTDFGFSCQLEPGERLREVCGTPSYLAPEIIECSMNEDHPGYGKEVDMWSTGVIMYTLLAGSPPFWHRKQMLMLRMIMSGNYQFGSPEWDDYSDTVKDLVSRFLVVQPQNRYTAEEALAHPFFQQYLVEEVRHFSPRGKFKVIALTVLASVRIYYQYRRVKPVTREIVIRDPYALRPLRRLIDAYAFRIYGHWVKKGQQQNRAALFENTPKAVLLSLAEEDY
# [24] = tested on: Phosphatidylinositol 4,5-bisphosphate 3-kinase catalytic subunit alpha isoform (Homo sapiens), P42336 [C420R]; conditions: Compound concentration 1000.0 nM
# Sequence of Phosphatidylinositol 4,5-bisphosphate 3-kinase catalytic subunit alpha isoform (Homo sapiens), P42336 [C420R] (P42336 whole entry C420R, canonical isoform): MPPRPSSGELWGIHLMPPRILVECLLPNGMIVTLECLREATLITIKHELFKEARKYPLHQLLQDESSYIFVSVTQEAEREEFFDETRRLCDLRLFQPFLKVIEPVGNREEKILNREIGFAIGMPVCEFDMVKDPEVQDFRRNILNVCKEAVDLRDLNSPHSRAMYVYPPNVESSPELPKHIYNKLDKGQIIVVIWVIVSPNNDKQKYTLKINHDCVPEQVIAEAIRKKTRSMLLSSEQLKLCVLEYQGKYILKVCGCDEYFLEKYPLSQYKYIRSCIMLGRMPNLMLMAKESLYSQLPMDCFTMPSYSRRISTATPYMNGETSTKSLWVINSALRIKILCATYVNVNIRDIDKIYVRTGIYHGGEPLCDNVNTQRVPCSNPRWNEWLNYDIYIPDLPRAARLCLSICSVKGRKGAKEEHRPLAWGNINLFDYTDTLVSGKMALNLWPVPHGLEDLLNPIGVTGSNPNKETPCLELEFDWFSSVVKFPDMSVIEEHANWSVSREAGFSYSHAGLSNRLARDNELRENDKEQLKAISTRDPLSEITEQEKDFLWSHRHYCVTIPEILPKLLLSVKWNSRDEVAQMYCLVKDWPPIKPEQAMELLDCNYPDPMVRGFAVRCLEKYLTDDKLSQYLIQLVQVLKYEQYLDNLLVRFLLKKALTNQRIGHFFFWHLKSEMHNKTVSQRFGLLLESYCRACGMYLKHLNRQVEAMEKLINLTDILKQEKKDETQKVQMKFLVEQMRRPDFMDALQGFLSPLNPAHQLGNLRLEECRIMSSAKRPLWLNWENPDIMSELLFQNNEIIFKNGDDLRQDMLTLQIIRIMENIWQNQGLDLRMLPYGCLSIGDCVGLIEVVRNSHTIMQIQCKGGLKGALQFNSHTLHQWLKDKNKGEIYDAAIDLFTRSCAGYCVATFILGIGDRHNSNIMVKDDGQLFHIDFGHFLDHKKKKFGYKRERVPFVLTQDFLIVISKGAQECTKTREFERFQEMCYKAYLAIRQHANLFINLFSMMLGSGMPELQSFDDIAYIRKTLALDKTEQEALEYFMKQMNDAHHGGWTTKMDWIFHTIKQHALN
# [25] = tested on: Phosphatidylinositol 4,5-bisphosphate 3-kinase catalytic subunit alpha isoform (Homo sapiens), P42336 [M1043I]; conditions: Compound concentration 1000.0 nM
# Sequence of Phosphatidylinositol 4,5-bisphosphate 3-kinase catalytic subunit alpha isoform (Homo sapiens), P42336 [M1043I] (P42336 whole entry M1043I, canonical isoform): as the sequence (P42336 whole entry C420R, canonical isoform) above, with R420C, M1043I counted along it
# [26] = biological target: Phosphatidylinositol 4-kinase beta (Homo sapiens) (UniProt Q9UBF8); conditions: Compound concentration 1000.0 nM
# [27] = biological target: Serine/threonine-protein kinase N2 (Homo sapiens) (UniProt Q16513); conditions: Compound concentration 1000.0 nM
# [28] = biological target: Serine/threonine-protein kinase PLK1 (Homo sapiens) (UniProt P53350); conditions: Compound concentration 1000.0 nM
# [29] = biological target: Serine/threonine-protein kinase PLK2 (Homo sapiens) (UniProt Q9NYY3); conditions: Compound concentration 1000.0 nM
# Sequence of Serine/threonine-protein kinase PLK2 (Homo sapiens) (Q9NYY3 whole entry, looked up): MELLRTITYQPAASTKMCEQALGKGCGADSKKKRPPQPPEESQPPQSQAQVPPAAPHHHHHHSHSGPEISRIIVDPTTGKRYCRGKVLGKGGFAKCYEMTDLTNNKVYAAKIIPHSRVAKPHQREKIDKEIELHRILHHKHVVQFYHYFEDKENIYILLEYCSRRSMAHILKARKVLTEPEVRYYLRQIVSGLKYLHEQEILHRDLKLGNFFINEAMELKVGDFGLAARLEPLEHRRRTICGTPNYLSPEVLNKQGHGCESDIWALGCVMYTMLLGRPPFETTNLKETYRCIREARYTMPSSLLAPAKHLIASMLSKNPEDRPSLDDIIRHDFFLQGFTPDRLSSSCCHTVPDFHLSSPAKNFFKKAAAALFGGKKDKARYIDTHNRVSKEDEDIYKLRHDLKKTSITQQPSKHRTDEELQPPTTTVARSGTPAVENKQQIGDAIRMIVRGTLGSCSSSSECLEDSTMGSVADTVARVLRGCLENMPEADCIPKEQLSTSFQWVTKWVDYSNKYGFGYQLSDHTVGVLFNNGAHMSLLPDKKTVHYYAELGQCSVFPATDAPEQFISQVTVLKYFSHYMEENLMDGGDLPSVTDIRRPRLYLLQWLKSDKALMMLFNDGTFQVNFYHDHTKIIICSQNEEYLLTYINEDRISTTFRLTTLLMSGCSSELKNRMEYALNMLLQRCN
# [30] = biological target: Protein kinase C delta type (Homo sapiens) (UniProt Q05655); conditions: Compound concentration 1000.0 nM
# [31] = biological target: Ribosomal protein S6 kinase alpha-4 (Homo sapiens) (UniProt O75676); conditions: Compound concentration 1000.0 nM
# Sequence of Ribosomal protein S6 kinase alpha-4 (Homo sapiens) (O75676 whole entry, looked up): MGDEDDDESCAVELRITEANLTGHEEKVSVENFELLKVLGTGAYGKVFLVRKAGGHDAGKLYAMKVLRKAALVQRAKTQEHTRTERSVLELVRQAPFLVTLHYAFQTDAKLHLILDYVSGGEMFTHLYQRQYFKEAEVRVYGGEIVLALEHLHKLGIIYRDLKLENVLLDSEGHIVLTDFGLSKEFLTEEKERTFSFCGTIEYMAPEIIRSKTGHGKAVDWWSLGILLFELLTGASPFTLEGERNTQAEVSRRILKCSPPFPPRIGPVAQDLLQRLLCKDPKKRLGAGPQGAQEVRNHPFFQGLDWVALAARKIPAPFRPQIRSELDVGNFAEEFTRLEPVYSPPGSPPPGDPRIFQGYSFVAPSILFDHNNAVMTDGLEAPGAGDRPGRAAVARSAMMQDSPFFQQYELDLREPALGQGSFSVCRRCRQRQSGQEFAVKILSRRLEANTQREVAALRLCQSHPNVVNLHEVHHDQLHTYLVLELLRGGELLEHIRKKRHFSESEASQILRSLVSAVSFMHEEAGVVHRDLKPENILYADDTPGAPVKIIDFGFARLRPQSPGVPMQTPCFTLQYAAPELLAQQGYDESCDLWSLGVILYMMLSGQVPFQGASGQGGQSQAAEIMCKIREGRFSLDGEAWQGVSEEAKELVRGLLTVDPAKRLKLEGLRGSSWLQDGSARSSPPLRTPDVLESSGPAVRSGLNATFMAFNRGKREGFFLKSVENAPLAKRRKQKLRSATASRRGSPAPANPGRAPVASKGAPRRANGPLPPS
# [32] = biological target: Ribosomal protein S6 kinase beta-1 (Homo sapiens) (UniProt P23443); conditions: Compound concentration 1000.0 nM
# [33] = biological target: Serine/threonine-protein kinase SIK2 (Homo sapiens) (UniProt Q9H0K1); conditions: Compound concentration 1000.0 nM
# [34] = biological target: Proto-oncogene tyrosine-protein kinase Src (Homo sapiens) (UniProt P12931); conditions: Compound concentration 1000.0 nM
# [35] = biological target: Tyrosine-protein kinase Tec (Homo sapiens) (UniProt P42680); conditions: Compound concentration 1000.0 nM
# [36] = biological target: Activated CDC42 kinase 1 (Homo sapiens) (UniProt Q07912); conditions: Compound concentration 1000.0 nM
# [37] = biological target: High affinity nerve growth factor receptor (Homo sapiens) (UniProt P04629); conditions: Compound concentration 1000.0 nM
# [38] = biological target: Transient receptor potential cation channel subfamily M member 6 (Homo sapiens) (UniProt Q9BX84); conditions: Compound concentration 1000.0 nM
# [39] = biological target: Serine/threonine-protein kinase ULK3 (Homo sapiens) (UniProt Q6PHR2); conditions: Compound concentration 1000.0 nM
# [40] = biological target: Serine/threonine-protein kinase VRK2 (Homo sapiens) (UniProt Q86Y07); conditions: Compound concentration 1000.0 nM
# [41] = biological target: Serine/threonine-protein kinase 32A (Homo sapiens) (UniProt Q8WU08); conditions: Compound concentration 1000.0 nM
# [42] = biological target: D(1A) dopamine receptor (Homo sapiens) (UniProt P21728); conditions: Compound concentration 10.0 uM
# [43] = biological target: D(2) dopamine receptor (Homo sapiens) (UniProt P14416); conditions: Compound concentration 10.0 uM
# [44] = biological target: Beta-1 adrenergic receptor (Homo sapiens) (UniProt P08588); conditions: Compound concentration 10.0 uM
# [45] = biological target: Beta-2 adrenergic receptor (Homo sapiens) (UniProt P07550); conditions: Compound concentration 10.0 uM
structure (smiles),measurement,setting,value
CCC(=O)N[C@H]1CC[C@@H](C(=O)N(C)c2ccc(-c3nc4ccccc4o3)cc2)C1 [BI 99179],residual activity,[1],43%
same,residual activity,[2],95%
same,residual activity,[3],91%
same,residual activity,[4],95%
same,residual activity,[5],82%
same,residual activity,[6],100%
same,residual activity,[7],100%
same,residual activity,[8],100%
same,residual activity,[9],100%
same,residual activity,[10],100%
same,residual activity,[11],78%
same,residual activity,[12],77%
same,residual activity,[13],100%
same,residual activity,[14],67%
same,residual activity,[15],71%
same,residual activity,[16],100%
same,residual activity,[17],95%
same,residual activity,[18],69%
same,residual activity,[19],100%
same,residual activity,[20],80%
same,residual activity,[21],86%
same,residual activity,[22],82%
same,residual activity,[23],100%
same,residual activity,[24],92%
same,residual activity,[25],100%
same,residual activity,[26],77%
same,residual activity,[27],100%
same,residual activity,[28],97%
same,residual activity,[29],96%
same,residual activity,[30],100%
same,residual activity,[31],100%
same,residual activity,[32],99%
same,residual activity,[33],78%
same,residual activity,[34],93%
same,residual activity,[35],100%
same,residual activity,[36],84%
same,residual activity,[37],75%
same,residual activity,[38],76%
same,residual activity,[39],67%
same,residual activity,[40],90%
same,residual activity,[41],98%
same,inhibition,[42],-2.15%
same,inhibition,[43],14.3%
same,inhibition,[44],-4.07%
same,inhibition,[45],1.55%
CCC(=O)N[C@@H]1CC[C@H](C(=O)N(C)c2ccc(-c3nc4ccccc4o3)cc2)C1 [BI 99990],residual activity,[1],100%
same,residual activity,[2],100%
same,residual activity,[3],100%
same,residual activity,[4],100%
same,residual activity,[5],100%
same,residual activity,[6],100%
same,residual activity,[7],100%
same,residual activity,[8],100%
same,residual activity,[9],95%
same,residual activity,[10],100%
same,residual activity,[11],89%
same,residual activity,[12],76%
same,residual activity,[13],100%
same,residual activity,[14],69%
same,residual activity,[15],100%
same,residual activity,[16],100%
same,residual activity,[17],100%
same,residual activity,[18],62%
same,residual activity,[19],100%
same,residual activity,[20],100%
same,residual activity,[21],100%
same,residual activity,[22],83%
same,residual activity,[23],100%
same,residual activity,[24],70%
same,residual activity,[25],100%
same,residual activity,[26],100%
same,residual activity,[27],100%
same,residual activity,[28],95%
same,residual activity,[29],100%
same,residual activity,[30],89%
same,residual activity,[31],100%
same,residual activity,[32],93%
same,residual activity,[33],100%
same,residual activity,[34],100%
same,residual activity,[35],100%
same,residual activity,[36],100%
same,residual activity,[37],100%
same,residual activity,[38],84%
same,residual activity,[39],66%
same,residual activity,[40],100%
same,residual activity,[41],100%
same,inhibition,[42],-1.16%
same,inhibition,[43],18.6%
same,inhibition,[44],-4.55%
same,inhibition,[45],0.247%
